Source: patent publication US20230391868A1, “COMPOSITIONS FOR AND METHODS OF TREATING CANCER” (The George Washington University, priority 2022, published 2023)

Experiments:
[1] = tested on: A31A7 macrophages and BMDMs; assay: Macrophage M1/M2 marker gene expression by qRT-PCR; type: cell-based, mouse
Protocol: Bone marrow-derived macrophages were isolated from the femurs and tibias of wild-type C57/Bl6, HDAC6 knockout (C57BL/6J-Hdac6em2Lutzy/J, 029318, Jackson Laboratory), or UBC-GFP (C57BL/6-Tg(UBC-GFP)30Scha/J, 004353, Jackson Laboratory). Isolated bone marrow cells were cultured in RPMI 1640 complete medium with 10% FBS, 1% NEAA, and 1% penicillin-streptomycin in 5% CO2 at 37° C. Medium was supplemented with murine recombinant M-CSF (20 ng/mL, 576404, Biolegend) to differentiate monocytes into macrophages. Three days after bone marrow isolation, undifferentiated and floating cells were washed with PBS and replaced with fresh RPMI media. […]
(§1) Macrophages were polarized to M1-like phenotype using 50 ng/mL of interferon gamma (IFNγ, 575306, Biolegend) and 100 ng/mL of bacterial lipopolysaccharide (LPS, L2880, Sigma Aldrich, St. Louis, MO) for 24 hours. To polarize macrophages towards the M2-like phenotype, macrophages were stimulated with 20 ng/mL of IL-4 (214-14, PeproTech) and 20 ng/mL of IL-13 (575904, Biolegend). THP1 monocytes were treated with 5 ng/mL of phorbol 12-myristate 13-acetate (PMA) to induce differentiation into macrophages. Once converted to macrophages, media was replaced to remove PMA prior to treatment and/or polarization. Polarization towards M1 and M2 phenotypes was performed with respective recombinant human cytokines from PeproTech: 50 ng/mL of IFNγ (300-02), 20 ng/mL IL-4 (200-04), and 20 ng/mL IL-13 (200-13). 100 ng/mL LPS was also used to polarize toward the M1 phenotype. 3. In vivo Studies.
qRT-PCR: Total RNA was extracted from cells using the Trizol reagent according to manufacturer's instructions (ThermoFisher Scientific, 15596018). Samples were then processed immediately or stored at −80° C. RNA was quantified using a NanoDrop One Spectrophotometer (ThermoFisher Scientific). The 260/280 ratios were routinely over 1.8. Sample cDNA was produced using the iScript cDNA synthesis kit (Bio-Rad, 1708891). Target mRNA was quantified using MyIQ single-color real-time PCR detection system from Bio-Rad (Bio-Rad, Hercules, CA) and iQ SYBR green Supermix (Bio-Rad, 1708882). The following primers were synthesized by Invitrogen (Waltham, MA) with sequences designed by Origene (Rockville, MD): mouse R-actin (MP200232), mouse Nos2 (MP208933), mouse MRC1 (MP207800), human R-actin (HP204660), human IL-1β (HP200544), human MRC1 (HP206121), human NOS2 (HP200591), human CD209 (HP214086), mouse SIRPα (MP215450), mouse LRP1 (MP207604), human LRP1 (HP206040), mouse MFGE8 (MP208190), human MFGE8 (HP225757), mouse CD36 (MP201923), human CD36 (HP200058), and mouse CD47 (MP201932). Primers for mouse ARG-1 (PPM31770C) and human SIRPα (QT01031051) were purchased from Qiagen (Hilden, Germany). Human CD47 primer sequences were obtained from Sudo T, et al and are 5′-[…]-3′ (sense) (SEQ ID NO:01) and 5′-[…]-3′ (antisense) (SEQ ID NO:02) (Sudo T, et al. (2017) Oncol. Lett. 14:801-809). Human CD86 primer sequences are 5′-[…]-3′ (sense) (SEQ ID NO:03) and 5′-[…]-3′ (antisense) (SEQ ID NO:04). Mouse CD80 sequences are 5′-[…]-3′ (sense) (SEQ ID NO:05) and 5′-[…]-3′ (antisense) (SEQ ID NO:06). Cycling conditions were set as per manufacturer's instructions. Single product amplification was confirmed by melting curve analysis. Quantification is expressed in arbitrary units and target mRNA levels were normalized to R-actin expression.

[2] = tested on: human THP1-derived macrophages; assay: Pro-phagocytic signal gene expression in THP1-derived macrophages; type: cell-based; conditions: human THP1-derived macrophages
Protocol: as §1
qRT-PCR: Total RNA was extracted from cells using the Trizol reagent according to manufacturer's instructions (ThermoFisher Scientific, 15596018). Samples were then processed immediately or stored at −80° C. RNA was quantified using a NanoDrop One Spectrophotometer (ThermoFisher Scientific). The 260/280 ratios were routinely over 1.8. Sample cDNA was produced using the iScript cDNA synthesis kit (Bio-Rad, 1708891). Target mRNA was quantified using MyIQ single-color real-time PCR detection system from Bio-Rad (Bio-Rad, Hercules, CA) and iQ SYBR green Supermix (Bio-Rad, 1708882). The following primers were synthesized by Invitrogen (Waltham, MA) with sequences designed by Origene (Rockville, MD): mouse R-actin (MP200232), mouse Nos2 (MP208933), mouse MRC1 (MP207800), human R-actin (HP204660), human IL-1β (HP200544), human MRC1 (HP206121), human NOS2 (HP200591), human CD209 (HP214086), mouse SIRPα (MP215450), mouse LRP1 (MP207604), human LRP1 (HP206040), mouse MFGE8 (MP208190), human MFGE8 (HP225757), mouse CD36 (MP201923), human CD36 (HP200058), and mouse CD47 (MP201932). […] Quantification is expressed in arbitrary units and target mRNA levels were normalized to R-actin expression.

[3] = tested on: mouse CD47 promoter; assay: CD47-luciferase reporter assay in SM1 melanoma cells; type: cell-based; conditions: SM1 transfected with CD47-luciferase reporter; NextA at different concentrations (FIG. 3D)
Protocol: The mouse CD47 or SIRPα promoters were cloned into a promoterless pGL4.20[luc2/puro] vector using Genentech's cloning services (San Francisco, CA, USA). Vectors were transfected into SM1 and B16 melanoma cells using Lipofectamine 3000 (L3000008, ThermoFisher) and transfected cells were selected using puromycin. A31A7 macrophages were transiently transfected using jetOPTIMUS DNA transfection reagent (Polyplus, NY, USA). Luminescence was measured using the Luciferase Assay System (E4550, Promega) in a SpectraMax i3× Multi-Mode Microplate Reader (Molecular Devices).
Furthermore, to investigate whether HDAC6 controls CD47 expression at the transcriptional level, the mouse CD47 promoter was cloned into a promoterless pGL4.20[luc2/puro] vector. SM1 melanoma cells were transfected with the CD47-luciferase reporter vector and stimulated with IFNγ in the absence or presence of NextA at different concentrations and measured luminescence. Treatment with NextA repressed IFNγ-mediated upregulation of Cd47 (FIG. 3D).

[4] = tested on: WM1361A melanoma cells; assay: CD47 gene expression upon IFNγ in WM1361A cells; type: cell-based, human; conditions: NextA 2.5 μM, 5 μM, and 10 μM, 12 hr post-stimulation (FIG. 3K)
Protocol: (§2) qRT-PCR: Total RNA was extracted from cells using the Trizol reagent according to manufacturer's instructions (ThermoFisher Scientific, 15596018). Samples were then processed immediately or stored at −80° C. RNA was quantified using a NanoDrop One Spectrophotometer (ThermoFisher Scientific). The 260/280 ratios were routinely over 1.8. Sample cDNA was produced using the iScript cDNA synthesis kit (Bio-Rad, 1708891). Target mRNA was quantified using MyIQ single-color real-time PCR detection system from Bio-Rad (Bio-Rad, Hercules, CA) and iQ SYBR green Supermix (Bio-Rad, 1708882). […] Quantification is expressed in arbitrary units and target mRNA levels were normalized to R-actin expression.
(§3) This phenomenon was further examined in human melanoma cell lines to test the translational application of the results obtained using mouse models. […] Furthermore, the effects of HDAC6 KD on IFNγ-driven CD47 upregulation was analyzed. […] The effects of pharmacological inhibition of HDAC6 in other human melanoma cell lines (WM1361A and WM793) were also assessed. […]

[5] = tested on: WM793 human melanoma cells; assay: CD47 gene expression upon IFNγ in WM793 cells; type: cell-based; conditions: 5 μM NextA (FIG. 3L)
Protocol: as §2, §3

Question: For CCCCN(Cc1ccc(C(=O)NO)cc1)C(=O)Nc1ccccc1 [NextA, Nexturastat A], which “phenotypic changes in both macrophage polarizations” value ([1]; A31A7, 5 μM of NextA) is on record?
Answer: The value was “elicited observable phenotypic changes”.

Question: What about the “expression of Cd80 in M1 polarized macrophages” value ([1]; A31A7, different concentrations of NextA, qRT-PCR (FIG. 7B)) of the same compound?
Answer: The value was “concentration-dependent effect”.

Question: And the “expression of Arg1 in M2 polarized macrophages” value ([1]; A31A7, different concentrations of NextA, qRT-PCR (FIG. 7C))?
Answer: Its value is “concentration-dependent effect”.

Question: And the “Nos2 and Cd80 at the transcriptional level” value ([1]; A31A7 and BMDMs polarized to M1 or M1(IFNγ), 5 μM (FIG. 1A))?
Answer: The value was “tended to significantly upregulate”.

Question: And the “expression of M2-associated markers Arg1 and Mrc1” value ([1]; A31A7 cells and BMDMs, M2, qRT-PCR, 5 μM (FIG. 1C))?
Answer: The value was “significantly downregulated”.

Question: And the “expression of Lrp1, Cd36, and Mfge8” value [2]?
Answer: The value was “significant increase”.

Question: And the “IFNγ-mediated upregulation of Cd47 (luminescence)” value [3]?
Answer: The value was “repressed”.

Question: And the “IFNγ-driven CD47 upregulation” value [4]?
Answer: The value was “prevented”.

Question: What about the “IFNγ-driven CD47 upregulation” value [5] of the same compound?
Answer: The value was “corroborated”.
